Data published in the NIST ThermoML archive (doi:10.1021/acs.jced.7b00347).

Experiment: mn = molality of the nth substance listed, in mol/kg
Conditions: for electrical conductivity: 100 kPa, Liquid, Alternating current cell with electrodes; for surface tension liquid-gas: Ring tensiometer

CCCCCCCCC[NH+](CCO)CC(C)O.[Cl-] (stereo not drawn) + O
Conditions | electrical conductivity [S/m] | surface tension liquid-gas [mN/m]
298.15 K, m1 = 0.0008607 | 0.00345 | –
298.15 K, m1 = 0.0008869 | 0.00352 | –
303.15 K, m1 = 1.77e-05 | 0.00064 | –
303.15 K, m1 = 1.774e-05 | – | 51.35
303.15 K, m1 = 3.548e-05 | – | 46.22
303.15 K, m1 = 3.66e-05 | 0.000736 | –
303.15 K, m1 = 5.54e-05 | 0.000832 | –
303.15 K, m1 = 7.43e-05 | 0.000928 | –
303.15 K, m1 = 8.87e-05 | – | 38.79
303.15 K, m1 = 9.31e-05 | 0.00102 | –
303.15 K, m1 = 0.000112 | 0.00112 | –
303.15 K, m1 = 0.0001308 | 0.00122 | –
303.15 K, m1 = 0.0001497 | 0.00131 | –
303.15 K, m1 = 0.0001685 | 0.00141 | –
303.15 K, m1 = 0.0001774 | – | 33.47
303.15 K, m1 = 0.0001874 | 0.00151 | –
303.15 K, m1 = 0.0002062 | 0.0016 | –
303.15 K, m1 = 0.0002251 | 0.0017 | –
303.15 K, m1 = 0.0002439 | 0.00179 | –
303.15 K, m1 = 0.0002628 | 0.00189 | –
303.15 K, m1 = 0.0002661 | – | 30.23
303.15 K, m1 = 0.0002816 | 0.00199 | –
303.15 K, m1 = 0.0003004 | 0.00208 | –
303.15 K, m1 = 0.0003193 | 0.00218 | –
303.15 K, m1 = 0.0003229 | – | 29.48
303.15 K, m1 = 0.0003451 | 0.00227 | –
303.15 K, m1 = 0.0003548 | – | 29.41
303.15 K, m1 = 0.0003709 | 0.00236 | –
303.15 K, m1 = 0.0003967 | 0.00245 | –
303.15 K, m1 = 0.0004225 | 0.00254 | –
303.15 K, m1 = 0.0004483 | 0.00263 | –
303.15 K, m1 = 0.0004741 | 0.00272 | –
303.15 K, m1 = 0.0004999 | 0.00281 | –
303.15 K, m1 = 0.0005257 | 0.00291 | –
303.15 K, m1 = 0.0005515 | 0.003 | –
303.15 K, m1 = 0.0005773 | 0.00309 | –
303.15 K, m1 = 0.0006031 | 0.00318 | –
303.15 K, m1 = 0.0006289 | 0.00327 | –
303.15 K, m1 = 0.0006547 | 0.00336 | –
303.15 K, m1 = 0.0006805 | 0.00345 | –
303.15 K, m1 = 0.0007063 | 0.00354 | –
303.15 K, m1 = 0.0007321 | 0.00363 | –
303.15 K, m1 = 0.0007579 | 0.00372 | –
303.15 K, m1 = 0.0007837 | 0.00381 | –
303.15 K, m1 = 0.0008095 | 0.00391 | –
303.15 K, m1 = 0.0008353 | 0.004 | –
303.15 K, m1 = 0.0008611 | 0.00409 | –
303.15 K, m1 = 0.0008869 | 0.00418 | –
303.15 K, m1 = 0.000887 | – | 28.48
303.15 K, m1 = 0.001774 | – | 28.01
303.15 K, m1 = 0.002661 | – | 27.82
303.15 K, m1 = 0.003547 | – | 27.65
308.15 K, m1 = 8.869e-06 | – | 52.23
308.15 K, m1 = 1.77e-05 | 0.00074 | –
308.15 K, m1 = 1.774e-05 | – | 47.19
308.15 K, m1 = 3.42e-05 | 0.000841 | –
308.15 K, m1 = 3.548e-05 | – | 42.29
308.15 K, m1 = 5.07e-05 | 0.000941 | –
308.15 K, m1 = 6.72e-05 | 0.00104 | –
308.15 K, m1 = 8.36e-05 | 0.00114 | –
308.15 K, m1 = 8.87e-05 | – | 35.88
308.15 K, m1 = 0.0001001 | 0.00124 | –
308.15 K, m1 = 0.0001166 | 0.00134 | –
308.15 K, m1 = 0.000133 | 0.00144 | –
308.15 K, m1 = 0.0001495 | 0.00154 | –
308.15 K, m1 = 0.000166 | 0.00165 | –
308.15 K, m1 = 0.0001774 | – | 30.89
308.15 K, m1 = 0.0001825 | 0.00175 | –
308.15 K, m1 = 0.0001989 | 0.00185 | –
308.15 K, m1 = 0.0002154 | 0.00195 | –
308.15 K, m1 = 0.0002319 | 0.00205 | –
308.15 K, m1 = 0.0002483 | 0.00215 | 28.73
308.15 K, m1 = 0.0002732 | – | 28.57
308.15 K, m1 = 0.0002803 | 0.00229 | –
308.15 K, m1 = 0.0003122 | 0.00243 | –
308.15 K, m1 = 0.0003441 | 0.00257 | –
308.15 K, m1 = 0.0003548 | – | 28.44
308.15 K, m1 = 0.0003761 | 0.00271 | –
308.15 K, m1 = 0.000408 | 0.00285 | –
308.15 K, m1 = 0.0004399 | 0.00299 | –
308.15 K, m1 = 0.0004718 | 0.00313 | –
308.15 K, m1 = 0.0005038 | 0.00327 | –
308.15 K, m1 = 0.0005357 | 0.00341 | –
308.15 K, m1 = 0.0005676 | 0.00356 | –
308.15 K, m1 = 0.0005996 | 0.00369 | –
308.15 K, m1 = 0.0006315 | 0.00384 | –
308.15 K, m1 = 0.0006634 | 0.00398 | –
308.15 K, m1 = 0.0006954 | 0.00412 | –
308.15 K, m1 = 0.0007273 | 0.00426 | –
308.15 K, m1 = 0.0007592 | 0.0044 | –
308.15 K, m1 = 0.0007911 | 0.00454 | –
308.15 K, m1 = 0.0008231 | 0.00468 | –
308.15 K, m1 = 0.000855 | 0.00482 | –
308.15 K, m1 = 0.0008869 | 0.00496 | –
308.15 K, m1 = 0.000887 | – | 27.73
308.15 K, m1 = 0.001774 | – | 27.41
308.15 K, m1 = 0.002661 | – | 27.23
